Results from US10653691B2, “Method of promoting remyelination” (Case Western Reserve University, priority 2013, dated 2020).
Entries after “also recorded” stand apart in the source; their conditions may differ.

Tests used:
[1] = test system: corpus callosum of mouse pups; experiment: Developmental myelination in mouse pups; assay type: in vivo; conditions: for number of CC1+ oligodendrocytes in the lateral corpus callosum / portion/length of corpus callosum covered by MBP+ fibres: pups treated daily for 4 days from postnatal day 2, clobetasol 2 mg/kg, miconazole 10 mg/kg i.p., vs vehicle
From the text: On postnatal day 6 the pups were anaesthetized using ketamine and xylazine and euthanized by transcardial perfusion with 4% PFA. Tissue was fixed overnight in 4% PFA, equilibrated in 30% sucrose, and embedded in OCT. Sections (20 μm) were cut and processed for CC1 and MBP immunohistochemistry. ImageJ was then used to count and measure area of the corpus callosum as well as measure the extent of the corpus callosum length covered by MBP1 processes. Eight coronal sections containing corpus callosum rostral to the hippocampus from at least three animals per group were used for these analyses. To quantitate extent of MBP in the corpus callosum, a line was drawn through the centre of the corpus callosum from the lateral tip to the dorsal most extent of MBP expression in the corpus callosum. The length of this line was measured and then the dorsal-most point of the line was extended to the dorsal tip of the corpus callosum and measured to yield the length of the lateral callosum. The two numbers were divided to get the MBP/corpus callosum proportion. A two-tailed t-test was used to compare drug—with vehicle-treated groups.

mouse OPCs = experiment: OPC differentiation into MBP+ oligodendrocytes; assay type: cell-based; conditions: for number of MBP+ oligodendrocytes by duration of treatment: 24, 48, 56 and 72 h; for number of MBP+ oligodendrocytes at 72 h by time of treatment start: treatment started at 0, 16, 24 or 48 h
Protocol: EpiSC-derived OPCs were seeded onto poly-D-lysine 96-well Viewplate or CellCarrier plates (PerkinElmer) coated with laminin (Sigma, L2020; 10 μgml^−1) using electronic multichannel pipetors. For the primary screen, 30,000 cells were seeded per well in screening medium (DMEM/F12 supplemented with N2 (R&D Systems), B-27 (Life Technologies), neurotrophin 3 (R&D Systems; 10 ng ml^−1), cAMP (Sigma; 50 μM), IGF-1 (R&D Systems; 100 ng ml^−1), noggin (R&D Systems; 100 ngml^−1)) and allowed to attach for 2 h before addition of drug. NIH Clinical Collection I and II drugs were added to assay plates with 0.1 ml pin replicators (Molecular Devices, Genetix; X5051), resulting in a final primary screening concentration of 5 μM. Thyroid-hormone-positive controls and DMSO vehicle controls were included in each assay plate. Cells were incubated under standard conditions (37° C., 5% CO2) for 3 days and fixed with 4% paraformaldehyde (PFA) in phosphate buffered saline (PBS). Fixed plates were permeabilized with 0.1% Triton X-100 and blocked with 10% donkey serum (v/v) in PBS for 2 h. Cells were labelled with MBP antibodies (Abcam, ab7349; 1:100) for 1 h at room temperature (˜22° C.) followed by detection with Alexa Fluorconjugated secondary antibodies (1:500) for 45 min. Nuclei were visualized by DAPI staining (Sigma; 1 μgml^−). All plates for the primary screen were processed and analyzed simultaneously to eliminate variability.
For the 5 μM in vitro screen, stained plates were imaged on the Opera confocal imaging system (PerkinElmer) and a set of 24×10 fields were collected from each well, resulting in an average of 10,000 cells being scored per well. For the dose-response (6.7 μM, 5 μM, 3.3 μM, 1.7 μM, 666 nM, 500 nM, and 333 nM) in vitro assays, plates were imaged on the Operetta High Content Imaging and Analysis system (PerkinElmer) and a set of 14×20 fields captured from each well resulting in an average of 3,300 cells being scored per well. […] Each traced nucleus region was then expanded by 50% and cross-referenced with the mature myelin protein (MBP or PLP1) stain to identify oligodendrocyte nuclei, and from this the percentage of oligodendrocytes was calculated. Processes emanating from oligodendrocyte nuclei were identified using the CSIRO2 analysis module within a custom Acapella script. Maximum mean process length (denoted ‘process length’) and mean process intensity (denoted ‘process intensity’) were generated on a per well basis. For the 5 μM in vitro screen, values were calculated and normalized to 100 for thyroid hormone (positive control)-treated wells and to 0 for DMSO(vehicle)-treated wells, on a per plate basis.

[2] = test system: muscarinic receptor subtypes (M1-M5); experiment: Muscarinic receptor antagonism, GeneBLAzer or Tango cellular reporter assays; assay type: cell-based; conditions: 1 μM
Protocol: GeneBLAzer or Tango assays were performed to determine level of acetylcholine muscarinic receptor M1, M3, M5 (GeneBLAzer), M2 and […] (Tango) antagonism.

ERK1/2 = experiment: Western blot of ERK1/2 phosphorylation in OPCs; assay type: cell-based, mouse; conditions: OPCs treated for 1 h
Protocol: EpiSC-derived OPCs were seeded into poly-Lornithine/laminin coated six-well plates and allowed to attach for 2 h in DMEM/F12 without additional factors. Cells were treated with indicated inhibitors or DMSO for 1 h-SCH772984 (ChemieTek, […]), SB590885 (Tocris, 10 nM), LY294002 (Tocris, 10 μM), and PD0325901 (Stemgent, 1 μM). Cells were then stimulated with drug or FGF2 (R&DSystems; 20 ng ml^−1) for 1 h and then lysed in 200 μL RIPA buffer (0.15 M NaCl, 0.05M Tris, pH=8.0, 1 mM EDTA, 1% Triton X-100, 0.1% SDS, 10% glycerol, HALT protease and phosphatase inhibitor (Thermo Fisher) added just before use) and incubated on ice for 20 min. Lysates were centrifuged at 4° C. and supernatant collected. Protein concentrations were determined by Pierce BCA protein assay kit (Thermo Fisher). Equal amounts of protein were resolved in a reduced manner on NuPAGE 4-12% Bis-Tris gels (Life Technologies) and transferred onto PVDF membranes (Life Technologies). Blots were blocked in either 5% BSA (phosphoprotein) or 5% milk (non phosphoprotein). Primary antibodies were all from the same vendor (Cell Signaling) and included phospho-Erk1/2 (4370S, clone D13.14.4E; 1:2,000), ERK1/2 (9107S, clone 3A7; 1:2,000), phospho-glucocorticoid receptor (4161S; 1:1,000), and glucocorticoid receptor (12041, clone D6H2L; 1:1,000) followed by incubation with HRP-conjugated secondary antibodies and chemiluminescent enhancement by West Pico substrate (Thermo Fisher).

[3] = test system: hESC- and hiPSC-derived human OPCs; experiment: Screening of human OPCs (MBP staining, HCA); assay type: cell-based; conditions: 21 days; miconazole 1 μM, clobetasol 5 μM; vs DMSO
From the text: Human OPCs were generated from skin fibroblast-derived human iPSC line (CWRU43, Tesar laboratory) and hESC lines H7 (NIH Human Embryonic StemCell RegistryWA07; NIH approval number NIHhESC-10-0061) and H9 (NIH Human Embryonic Stem Cell Registry WA09; NIH approval number NIHhESC-10-0062) as previously described. iPSC- and hESC-derived OPCs were characterized by Sox10 (R&D Systems, AF2864; 1:100) staining, and then seeded in 96-well plates at 40,000 cells per well for drug testing. […] Plates were fixed and stained with MBP (Abcam, ab7349; 1:100) then imaged on the Operetta system. We analysed results with slight modification to HCA Acapella scripts used for mouse oligodendrocytes.

MOG35-55 EAE mouse model = experiment: MOG35-55 chronic progressive EAE model; conditions: for areas of myelin disruption in the white matter (luxol fast blue, MBP immunohistochemistry): cervical spinal cords; for functional improvement (disease score): daily i.p. for 10 days from peak of disease; for MBP expression and extent of demyelination in the spinal cord: histology after treatment, vs vehicle; for average clinical scores and cumulative clinical scores: larger treatment cohort, n=12 to 18 mice per group; for immune cell infiltration into the lesion areas (IBA1 staining): spinal cords after treatment
Protocol: Immunohistochemistry was performed as previously described. In short, tissue sections or whole slices were washed three times in PBS, blocked in PBS containing Triton X-100 (0.1%) and normal donkey serum (NDS, 2% for sections and 10% for cerebellar slices) and incubated with primary antibody overnight. For MBP immunohistochemistry, the primary antibody solution consisted of 2% NDS, 2% bovine serum albumin, and 0.1% saponin. For all other antibodies, the primary antibody solution consisted of 2% NDS and 0.1% Triton X-100. Primary antibodies used included rat anti-MBP (Abcam, ab7349; 1:100), mouse anti-APC CC1 clone (Millipore, MABC200; 1:500), and rabbit anti-IBA1 (Wako Chemicals, 019-19741; 1:1,000). The tissue was then washed in PBS and incubated in secondary antibodies for […]. Secondary detection was performed with Alexa Fluor-conjugated secondary antibodies (1:500) for 1 h. Luxol fast blue staining was performed as previously described.
Samples were processed as previously described. In short, samples were osmicated, stained en bloc with uranyl acetate, and embedded in EMbed 812, an Epon-812 substitute (EMS). Sections (1 μm) were cut and stained with toluidine blue and visualized on a light microscope (Leica DM5500B). Additional thin sections were cut, carbon coated and imaged either on a JEOL JEM-1200-EX electron microscope or a T12 electron microscope (FEI).
EAE was induced by immunizing 10-week-old C57BL/6 female mice with […] injection of […] complete Freund's adjuvant emulsion (Hooke Laboratories). One hour after immunization, mice were given 100 ng of pertussis toxin by 100 μl intraperitoneal injection. A second dose of pertussis toxin was administered the next day. EAE onset was monitored daily and scored using a clinical scale where 0 represented no abnormality; 1, limp tail; 2, limp tail and hind limb weakness; 3, hind limb paralysis; 4, hind limb paralysis and forelimb weakness; and 5, moribund. […] Once mice reached peak of disease ˜day 15; clinical score=3) they were randomized into treatment groups, and drug or vehicle (DMSO in saline) was administered intraperitoneally daily for 10 days (n=12-16 mice per group). […] Experimenters were blinded to the identity of the treatments and animals were scored daily. Cumulative disease scores for each animal were calculated during the treatment period, and a two-tailed t-test compared drug—with vehicle-treated groups. The extent of recovery for each animal was calculated as the difference between the peak disease score and the score at the end of each experiment, and a two-tailed t-test was used to compare each treatment with vehicle. External validation of MOG35-55 EAE experiments (n=12 mice per group) was performed at Hooke Laboratories with experimenters blinded to the identity of the substances.

[4] = 2 mg/kg daily i.p., postnatal day 2-6
[5] = miconazole 10 mg/kg, clobetasol 2 mg/kg, benztropine 10 mg/kg

SMILES	mortality of treated pups [1, 4]	sickness and body weight of treated pups [1, 4]	number of CC1+ oligodendrocytes in the lateral corpus callosum [1]	portion/length of corpus callosum covered by MBP+ fibres [1]	number of MBP+ oligodendrocytes by duration of treatment (mouse OPCs)	number of MBP+ oligodendrocytes at 72 h by time of treatment start (mouse OPCs)	inhibition of muscarinic receptor subtypes M1-M5 [2]	induction of ERK1/2 phosphorylation in OPCs (ERK1/2)	human OPC differentiation [3]	areas of myelin disruption in the white matter (luxol fast blue, MBP immunohistochemistry) (MOG35-55 EAE mouse model)	functional improvement (disease score) (MOG35-55 EAE mouse model; [5])	MBP expression and extent of demyelination in the spinal cord (MOG35-55 EAE mouse model)	average clinical scores and cumulative clinical scores (MOG35-55 EAE mouse model)	overt toxicity to the animals (MOG35-55 EAE mouse model; miconazole 10 mg/kg, clobetasol 2 mg/kg, benztropine 10 mg/kg, daily i.p. 10 days)	immune cell infiltration into the lesion areas (IBA1 staining) (MOG35-55 EAE mouse model)
C[C@H]1C[C@H]2[C@@H]3CCC4=CC(=O)C=C[C@]4(C)[C@@]3(F)[C@@H](O)C[C@]2(C)[C@@]1(O)C(=O)CCl [clobetasol]	some animals of the cohort died before end of treatment	exhibited sickness on the basis of this treatment, with low body weight	significant increase in the number of CC1^+ oligodendrocytes; also recorded: marked increase in the number of CC1-positive oligodendrocytes	significantly larger portion of the corpus callosum was populated by MBP^+ fibre tracts; also recorded: significant increase in the length of the corpus callosum covered with aligned MBP^+ fibres	progressive, time-dependent increase	dependent on drug treatment within the first 24 h of differentiation	Neither miconazole nor clobetasol inhibited any of the five muscarinic receptor subtypes	did not induce ERK1/2 phosphorylation	enhanced human OPC differentiation	decrease in areas of myelin disruption in the white matter	marked improvement in function	restoration of MBP expression and a reduction in the extent of demyelination in the spinal cord	significant reduction of disease and functional improvement	no drugs showed any overt evidence of toxicity	small reduction of immune cell infiltration into the lesion areas, especially in clobetasol-treated animals, but not an abrogation
Clc1ccc(COC(Cn2ccnc2)c2ccc(Cl)cc2Cl)c(Cl)c1 (stereo not drawn) [miconazole]	–	–	significant increase in the number of CC1^+ oligodendrocytes; also recorded: marked increase in the number of CC1-positive oligodendrocytes	significantly larger portion of the corpus callosum was populated by MBP^+ fibre tracts; also recorded: significant increase in the length of the corpus callosum covered with aligned MBP^+ fibres	progressive, time-dependent increase	dependent on drug treatment within the first 24 h of differentiation	Neither miconazole nor clobetasol inhibited any of the five muscarinic receptor subtypes	strong and sustained phosphorylation	enhanced human OPC differentiation, with miconazole exhibiting the most reproducible and potent effects	decrease in areas of myelin disruption in the white matter	marked improvement in function	restoration of MBP expression and a reduction in the extent of demyelination in the spinal cord	significant reduction of disease and functional improvement	–	small reduction of immune cell infiltration into the lesion areas
